# Laboratory results from patent US20210322462A1, “WOUND PREVENTION AND/OR TREATMENT AND RELATED COMPOUNDS, MATRICES, COMPOSITIONS, METHODS AND SYSTEMS” (CALIFORNIA INSTITUTE OF TECHNOLOGY, priority 2020, published 2021).
# What was measured:
# [1] = system: Pseudomonas aeruginosa ΔnarGHJI; test: Chlorate sensitivity assay and chlorate quantification, ΔnarGHJI versus wild type; assay type: cell-based; settings: 1 mM chlorate, 72 hours
# Method: (§1) Chlorate sensitivity assay was then performed. In particular, to test mutants for chlorate sensitivity, overnight cultures of each strain were grown aerobically in LB with 40 mM KNO3. Cultures were pelleted, washed twice with LB to remove residual KNO3, and resuspended in LB without (control) or with 1 mM NaClO3 to final OD500=1. Cultures were moved to the anaerobic glove box to adapt to anoxia.
# Cultures were incubated at 37° C. for 72 hours, after which they were removed from the anaerobic glove box to determine viable cell counts for calculating percent survival as described previously) (Spero and Newman 2018).). At 72 hours, part of the culture was also pelleted, and supernatant collected for quantifying chlorate concentrations via ion chromatography.
# (§2) Chlorate quantification was then performed via ion chromatography. In particular, culture samples were pelleted, and the supernatant was diluted 1:10 in dH2O in a 0.5 mL vial (Thermo Fisher Scientific catalog numbers 038010 and 038011). Chlorate concentrations were determined using a Dionex ICS 2000 ion chromatography as described previously (Spero and Newman 2018).) at the Environmental Analysis Center at Caltech.
# [2] = system: Pseudomonas aeruginosa ΔhflC; test: Chlorate sensitivity assay and chlorate quantification, ΔhflC versus wild type; assay type: cell-based; settings: 1 mM chlorate
# Method: as §1
# […] At 72 hours, part of the culture was also pelleted, and supernatant collected for quantifying chlorate concentrations via ion chromatography.
# as §2
smiles,measurement,setting,value
"[O-][Cl+2]([O-])O [chlorate, NaClO3]",chlorate resistance (% survival) relative to WT,"[1]; anaerobic, 37° C. (FIG. 2A)",more resistant to chlorate than WT
same,"Nar activity, chlorate reduction (% chlorate remaining) relative to WT",[1]; ion chromatography (FIG. 2B),lower rates of chlorate reduction
same,chlorate resistance (% survival) relative to WT,[2]; over the course of 48 hours (FIG. 3A),more resistant to chlorate than WT
same,"Nar activity, chlorate reduction (% chlorate remaining) relative to WT",[2]; over the course of 48 hours (FIG. 3B),lower rates of chlorate reduction
